Assay results as given in patent publication US11191811B2, “Osteocalcin as a treatment for frailty associated with aging” (THE TRUSTEES OF COLUMBIA UNIVERSITY IN THE CITY OF NEW YORK, priority 2014, dated 2021).
“Also recorded” adds a separate entry of the source.

Assays:
[1] = system: Osteocalcin−/− mice; assay: Behavioral tests of Osteocalcin−/− mice with ICV infusion (DLT, EPMT, OFT, FST, TST); type: in vivo, mouse; conditions: for anxiety / depression: ICV infusion 10 ng/hour, week-long, Osteocalcin−/− mice
Experimental: FIG. 12. Administration of osteocalcin alleviates anxiety and depression. (A-E) Behavioral analyses of adult Osteocalcin^−/− mice receiving recombinant uncarboxylated osteocalcin through intracerebro-ventricular (ICV) infusions. (A) Light and Dark test, (B) Elevated plus maze test, (C) Open field test, (D) Forced swim test, and (E) Tail suspension test performed in a cohort of WT (n=7) and Osteocalcin^−/− infused with vehicle or recombinant uncarboxylated osteocalcin (10 ng/hour). In each set of three bars, the rightmost bar represents the results following administration of osteocalcin.
For osteocalcin delivery to pregnant mice, IP injections (240 ng/day) were performed as soon as a plug was present daily until delivery (E0.5-E18.5). For osteocalcin or leptin infusion in adult Osteocalcin^−/− or ob/ob mice, pumps (Alzet micro-osmotic pump, Model 1002) delivering osteocalcin (300 ng/hr), leptin (50 ng/hr), or vehicle were surgically installed subcutaneously in the backs of 3-month old mice. For the postnatal rescue of cognitive functions in Osteocalcin^−/− mice, osteocalcin (10 ng/hour) or vehicle were delivered intrasubventricularly (icv) as previously described (Ducy et al., 2000, Cell 100:197-207). Leptin and osteocalcin content in sera and tissues were determined by ELISA.
Tail suspension testing was performed as previously described (Mayorga et al., 2001, J. Pharmacology Exper. Therapeutics 298:1101-1107; Steru et al., 1985, Psychopharmacology 85:367-370). Mice were transported a short distance from the holding facility to the testing room and left there undisturbed for at least 1 hour. Mice were individually suspended by the tail (distance from floor was 35 cm) using adhesive tape (distance from tip of tail was 2 cm). […] The parameter recorded was the number of seconds spent immobile. Mice were scored by a highly trained observer, over a 5 min period, blind to the genotype of the mice.
Anxiety and locomotor activity of mice were measured using the open field test (David et al., 2009, Neuron 62:479-493). Each animal was placed in a 43×43 cm open field chamber, and tested for 30 min. Mice were monitored throughout each test session by video tracking and analyzed using Matlab software. Mice were placed individually into the center of the open-field arena and allowed to explore freely. The overall motor activity was quantified as the total distance travelled. The anxiety was quantified measuring the number of rearings and the time and distance spent in the center versus periphery of the open field chamber (in %).
Each mouse was allowed to explore the apparatus for 5 min. Global activity was assessed by measuring the number of entries […] (David et al, 2009, Neuron 62:479-493). Anxiety was assessed by comparing the time spent in the open arms.
The forced swimming test was carried out according to the method described by David et al., 2009, Neuron 62:479-493. Briefly, mice were dropped individually into glass cylinders (height: 25 cm, diameter: 10 cm) containing 10 cm water height., maintained at 23-25° C. Animals were tested for a total of 6 min. The total duration of immobility time was recorded. Mice were considered immobile when they made no attempts to escape with the exception of the movements necessary to keep their heads above the water. Mice were scored by an observer blind to their genotypes.
The test was performed in a quiet, darkened room. Mice were individually housed in cages containing a handful of bedding from their home cage and acclimated to the room at least 1 h before the test. Naïve mice were placed individually in the testing chamber in the dark compartment. The test was 5 min in duration, and time spent and number of entries in light compartments were recorded a highly trained observer, blind to the genotype of the mice. […]

[2] = system: Gprc6aMck−/− mice; assay: Endurance exercise on treadmill until exhaustion; type: in vivo, mouse; conditions: Gprc6aMck−/− mice treated with Ocn
Experimental: First, whether a single intraperitoneal injection of uncarboxylated mouse osteocalcin (osteocalcin) (100 ng/g of body weight) immediately before exercise would improve the exercise capacity of 3 month-old WT mice was tested.
For exercise studies, all mice were trained before the tests to run on a treadmill (Harvard apparatus) for three days (10 minutes/day). The day of the test, mice were acclimated to the treadmill for 5 minutes followed by 10 minutes running at a constant speed of 17 cm/s, then a gradual increase in the speed up to 30 cm/s. Next, mice were run until exhaustion as defined by the number of times a mouse fell off to the electric grid during one minute (>15). Measurements of muscle strength were carried out using a grip strength meter (Columbus instruments). Values are expressed as the average of five single measurements, taken one minute apart from each other. For all biochemical and metabolic analyses performed, blood/tissues were collected and processed either at rest or at the end of a 40 min run (30 cm/s).

[3] = Crossing of the blood-brain barrier; conditions: stated without test description
[4] = system: wild-type mice; assay: Allergen-triggered asthma-like condition, osteocalcin delivery; type: in vivo, mouse
Experimental: The level of acetylcholine, a neurotransmitter that causes bronchoconstriction, is increased in the lungs but not in the brains of Osteocalcin^−/− and Gprc6a^−/− mice.
When metacholine is administered to the lungs of mice, the lung airways constrict. […] Wild-type mice were treated with an inflammation-increasing agent and developed asthma that included bronchoconstriction and signs of inflammation.

[5] = system: aged WT mice; assay: Novel Object Recognition test in aged WT mice with ICV infusion; type: in vivo, mouse
Experimental: FIG. 15. Osteocalcin improves hippocampal function in aged wild-type (WT) mice. Constant and novel object investigation in the Novel Object Recognition test in 17 month old mice treated for 1 month with vehicle or 10 ng/hr recombinant uncarboxylated osteocalcin.
ICV pumps delivering (10 ng/hr) recombinant uncarboxylated full-length mouse osteocalcin were implanted in 16 month old WT mice. After an infusion period of one month, the mice were subjected to a modified version of the Novel Object Recognition test, to assay memory and hippocampal function. Briefly, mice were given five 5 minute exposures, with 3 minute resting intervals between exposures, to a novel arena containing two objects. During exposures 1-4, mice were habituated to these two objects, which elicited equal amounts of exploration. In the fifth exposure, one of the objects was replaced with a novel object.

[6] = listed as undercarboxylated/uncarboxylated osteocalcin
[7] = delivery by nebulization (two weeks)

For “uncarboxylated osteocalcin: Recombinant uncarboxylated mouse osteocalcin, bacterially produced, purified on glutathione beads and cleaved from the GST subunit by thrombin (YLGASVPSPDPLEPTREQCELNPACDELSDQYGLKTAYKRIYGITI)”, which anxiety [1] is on record?
Its anxiety is “corrected”.

And the depression [1]?
The depression was “corrected”.

What about the anxiety ([1]; listed as osteocalcin) of the same substance?
The anxiety was “alleviates”.

And the depression ([1]; listed as osteocalcin)?
The depression was “alleviates”.

What about the anxiety [1, 6] of the same substance?
Its anxiety is “rescued”.

What about the depression [1, 6] of the same substance?
The depression was “rescued”.

And the learning and memory ([1]; direct administration to the brains of adult Osteocalcin−/− mice)?
The learning and memory was “rescued”.

And the muscle function [2]?
The muscle function was “did not improve”.

What about the “crossing of the blood-brain barrier” value [3] of the same substance?
The value was “crosses”.

And the “crossing of the blood-brain barrier” value [3, 6]?
Its value is “can cross”.

What about the bronchoconstriction [4, 7] of the same substance?
Its bronchoconstriction is “completely rescued”.

What about the “local inflammation / inflammatory signs” value [4, 7] of the same substance?
Its value is “without affecting; also recorded: still observed”.

And the bronchoconstriction ([4]; osteocalcin delivered to the brains)?
The bronchoconstriction was “did not show a similar effect”.

And the “time exploring the novel object” value ([5]; 10 ng/hr ICV for one month, 16 month old WT mice, versus vehicle alone)?
The value was “less time”.

What about the “discrimination between the novel and constant objects” value ([5]; 10 ng/hr ICV for one month, aged mice) of the same substance?
Its value is “able to discriminate”.

What about the hippocampal function ([5]; aged WT mice (FIG. 15 title)) of the same substance?
The hippocampal function was “improves”.
